Results from patent US8906416B2, “Xanthenedione derivatives for the treatment of pigmentation and skin ageing disorders” (Pierre Fabre Dermo-Cosmetique, priority 2010, dated 2014).

Experiments:
B16-F10 cells = experiment: Melanin assay test in B16-F10 cells; format: cell-based, murine; settings: Mus musculus, B16-F10; 0.1 μM α-MSH stimulated, 72 hours treatment; read-out: Results activity B16-F10 IC50 (50% melanin synthesis inhibition)
Protocol: This involves a test of measuring the synthesis of melanin by colorimetric assay on a murine melanoma cell line: the B16-F10 line. This test enables the depigmenting power of active ingredients to be evaluated.
The B16-F10 cells are cultured in 96-well plates in DMEM medium, supplemented with FCS (foetal calf serum), and incubated 24 hours at 37° C., 5% CO2. The cells are then stimulated with 0.1 μM α-MSH (to stimulate the synthesis of melanin, the stimulation observed is around 150%) and treated 72 hours with the active ingredients to be tested. Each concentration of active ingredient is tested at least in triplicate. The total melanin followed by the intracellular melanin dissolved in the lysis buffer are then assayed by absorbance reading at 405 nm. The total proteins are assayed in the lysate and the results are expressed in mg melanin/mg proteins. The percentage of activity is calculated as follows:
[formula] A negative value indicates an inhibition, whereas a positive value indicates an induction of the synthesis of melanin. General Experimental Conditions: • Equipment: • CO2 cell incubator (Heraeus), Oven, Centrifuge (Heraeus), Laminar air flow fume hood, 96-well clear bottomed plates—Falcon, sterile cones—Treff Lab, Polylabo, Mithras LB940 (Berthold Technologies)-154/MIPA/003 Biological Equipment: • B16-F10 cell line between P10 and P20 (murine melanocytes) (ATCC, CRL-6475) • Reagents • DMEM without phenol red (GIBCOBRL, 31053-028), 200 mM Glutamax-I Supplement (GIBCOBRL, 35050-038), D-PBS (GIBCOBRL, 14190-094), Foetal calf serum (Invitrogen, 10270-098), Trypsine-EDTA (GIBCOBRL, 25300-054), NaOH (Sigma, S8045-500G), DMSO (Sigma, 471267-1L), Nle, Phe—Melanocyte Stimulating Hormone (Sigma, M-8764), Melanin (Sigma, M-0418), BCA-COPPER (SIGMA, B9643 AND C2284), BSA (SIGMA, P0914) B) Test for the Study of the Antioxidant Capacity by Chemiluminescence (Photochem Analytik Jena) Principle: […]

[1] = tested on: Melanoderm-B (Black) reconstructed epidermis; experiment: Reconstructed epidermis depigmenting activity, Melanoderm-B; format: cell-based; settings: D3, D7, D10 and D14, 0.5% in Simplex formula
Source text: (§1) The compounds of examples 8 and 21 were formulated at the concentration of 0.5% in a Simplex formula according to the example of composition A. Melanoderm-B (Black) or Melanoderm A (Asian) (MatTek, USA) reconstructed epidermis models were used. The reference compound chosen is kojic acid titrated to 2% in aqueous solution. The culture medium is changed every day. The products are applied by topical mode on the epidermis every two days. For the application, the epidermises are rinsed with PBS and the product to be tested is then applied. A preliminary toxicity study made it possible to determine that the dose to apply for each treatment is 25 μL. The tissues were observed on D3, D7, D10, D14 (Melanoderm B) or D6, D10, D14 and D21 (Melanoderm A) by 3 independent experts.

[2] = tested on: Melanoderm A (Asian) reconstructed epidermis; experiment: Reconstructed epidermis depigmenting activity, Melanoderm A; format: cell-based
Source text: as §1, with “experts. The formula containing example 8 was also tested in a Melanoderm-A (Asian) model. The coloration of the epidermis is compared to that of the simplex control formula.” for “experts.”

SMILES | IC50 (B16-F10 cells) | Coloration of the epidermis compared to negative control (water) [1] | Melanin assay: reduction of melanin with respect to epidermises treated by the Simplex control formula ([2]; 0.5% in Simplex formula) | Coloration of the epidermis compared to the simplex control formula ([2]; D6, D10, D14, D21, 0.5% in Simplex formula)
COc1cc(C2C3=C(CC(C)(C)CC3=O)OC3=C2C(=O)CC(C)(C)C3)ccc1O[C@@H]1OC(CO)[C@@H](O)C(O)C1O (stereo in doubt) [Example 21, 9-(3-methoxy-4-((3S,4 S,5S)-3,4,5-trihydroxy-6-(hydroxymethyl)tetrahydro-2H-pyran-2-yloxy)phenyl)-3,3,6,6-tetramethyl-3,4,5,6,7,9-hexahydro-1H-xanthene-1,8(2H)-dione] | 69 µM | macroscopic depigmenting effect | – | –
CCCCCCCCCCCCCCCC(=O)Oc1ccc(C2C3=C(CC(C)(C)CC3=O)OC3=C2C(=O)CC(C)(C)C3)cc1OC [Example 8, 2-methoxy-4-(3,3,6,6-tetramethyl-1,8-dioxo-2,3,4,5,6,7,8,9-octahydro-1H-xanthen-9-yl)phenyl palmitate] | – | macroscopic depigmenting effect | 4.1 µg | macroscopic depigmenting effect
